Measured values: patent US8889887B2, “Pentamethine cyanine fluorescent dyes, preparation methods and uses thereof” (Dalian University of Technology, priority 2011, dated 2014)
Several values for one entry are separate records, joined by “and”; a condition that tells them apart may be missing. Equal values may be shown once. Where a name gives a salt, the structure may show the parent alone.

Columns and labels:
Type in all cases: physicochemical
[1] = UV absorption and fluorescence emission spectra in different solvents; details: for λabs1 maximum absorption wavelength / λabs2 maximum absorption wavelength / λem1 maximum emission wavelength / λem2 maximum emission wavelength: 1 μM; for Φ1 fluorescence quantum yield / Φ2 fluorescence quantum yield / Φ fluorescence quantum yield (single peak): reference Rhodamine B in ethanol
Description: Firstly, stock solutions of 4 and 7 in DMSO were prepared respectively. Then sample solutions of 1 μM were prepared by diluting the mother liquors with corresponding chromatography grade solvent. UV absorption and fluorescence emission spectra of the sample solutions in different solvents were measured at room temperature, the results were shown in FIGS. 1A and 1B, respectively.

[2] = Viscosity experiments: absorption and emission spectra in glycerol-ethanol mixtures; details: glycerol-ethanol mixtures
Description: (§1) Firstly, DMSO solutions of 4 and 7 having a concentration of 1.0×10^−3 M were prepared, respectively. The stock solution of […] was added into 10 mL glycerol-ethanol mixture, and ultrasonicated to remove bubbles. The solution stayed for 1 hour, and then absorption and emission spectra therefore were measured by using UV-visible spectrophotometer and fluorescence spectrophotometer, and fluorescence lifetime of solution with different viscosity was detected as well. UV-visible spectrophotometer, model: Hp8453; fluorescence spectrophotometer model: FP-6500; Fluorescence lifetime equipment: Horiba Jobin Yvon Fluoromax-4-p.
(§2) Glycerol-ethanol mixture was a mixture of glycerol and ethanol, Vglycerol: Vethanol were 1:9, 2:8, 3:7, 4:6, 5:5, 6:4, 7:3, 8:2 and 9:1.

[3] = Fluorescence lifetime in solutions with different viscosity
Description: as §1, §2

Compound: CCN1/C(=C/C=C(C=O)/C=C/C2=[N+](CC)c3ccccc3C2(C)C)C(C)(C)c2ccccc21 [compound 4, 1,5-di(1-N-ethyl-3,3-dimethyl-2,3-H-lindoline)-3-formyl-1,3,5-pentatriene chloride quaternary ammonium salt cyanine dye]
- Δλ1 Stokes Shift (λem1 − λabs1) ([1]; DMSO): 51 nm
- Δλ2 Stokes Shift (λem2 − λabs2) ([1]; DMSO): 17 nm
- Δλ3 Stokes Shift (λem2 − λabs1) ([1]; DMSO): 230 nm
- ε1 molar extinction coefficient ([1]; DMSO): 15000 L/cm/mol
- ε2 molar extinction coefficient ([1]; DMSO): 108500 L/cm/mol
- λabs1 maximum absorption wavelength ([1]; DMSO): 400 nm
- λabs2 maximum absorption wavelength ([1]; DMSO): 613 nm
- λem1 maximum emission wavelength ([1]; DMSO): 451 nm
- λem2 maximum emission wavelength ([1]; DMSO): 630 nm
- Φ1 fluorescence quantum yield ([1]; DMSO): 0.0158
- Φ2 fluorescence quantum yield ([1]; DMSO): 0.0224
- Δλ1 Stokes Shift (λem1 − λabs1) ([1]; acetonitrile): 54 nm
- Δλ2 Stokes Shift (λem2 − λabs2) ([1]; acetonitrile): 19 nm
- Δλ3 Stokes Shift (λem2 − λabs1) ([1]; acetonitrile): 229 nm
- ε1 molar extinction coefficient ([1]; acetonitrile): 11200 L/cm/mol
- ε2 molar extinction coefficient ([1]; acetonitrile): 93500 L/cm/mol
- λabs1 maximum absorption wavelength ([1]; acetonitrile): 397 nm
- λabs2 maximum absorption wavelength ([1]; acetonitrile): 607 nm
- λem1 maximum emission wavelength ([1]; acetonitrile): 451 nm
- λem2 maximum emission wavelength ([1]; acetonitrile): 626 nm
- Φ1 fluorescence quantum yield ([1]; acetonitrile): 0.0062
- Φ2 fluorescence quantum yield ([1]; acetonitrile): 0.0071
- Δλ1 Stokes Shift (λem1 − λabs1) ([1]; dichloromethane): 55 nm
- Δλ2 Stokes Shift (λem2 − λabs2) ([1]; dichloromethane): 29 nm
- Δλ3 Stokes Shift (λem2 − λabs1) ([1]; dichloromethane): 255 nm
- ε1 molar extinction coefficient ([1]; dichloromethane): 16000 L/cm/mol
- ε2 molar extinction coefficient ([1]; dichloromethane): 89700 L/cm/mol
- λabs1 maximum absorption wavelength ([1]; dichloromethane): 399 nm
- λabs2 maximum absorption wavelength ([1]; dichloromethane): 625 nm
- λem1 maximum emission wavelength ([1]; dichloromethane): 454 nm
- λem2 maximum emission wavelength ([1]; dichloromethane): 654 nm
- Φ1 fluorescence quantum yield ([1]; dichloromethane): 0.0060
- Φ2 fluorescence quantum yield ([1]; dichloromethane): 0.0231
- Δλ1 Stokes Shift (λem1 − λabs1) ([1]; ethanol): 52 nm
- Δλ2 Stokes Shift (λem2 − λabs2) ([1]; ethanol): 40 nm
- Δλ3 Stokes Shift (λem2 − λabs1), pseudo-Stokes Shift ([1]; ethanol): 254 nm
- ε1 molar extinction coefficient ([1]; ethanol): 13800 L/cm/mol
- ε2 molar extinction coefficient ([1]; ethanol): 97500 L/cm/mol
- λabs1 maximum absorption wavelength ([1]; ethanol): 399 nm
- λabs2 maximum absorption wavelength ([1]; ethanol): 613 nm
- λem1 maximum emission wavelength ([1]; ethanol): 451 nm
- λem2 maximum emission wavelength ([1]; ethanol): 653 nm
- Φ1 fluorescence quantum yield ([1]; ethanol): 0.0050
- Φ2 fluorescence quantum yield ([1]; ethanol): 0.0108
- sensitivity to solvent polarity ([1]; low-viscosity solvents of different polarity): insensitive to solvent polarity
- Δλ1 Stokes Shift (λem1 − λabs1) ([1]; methanol): 51 nm
- Δλ2 Stokes Shift (λem2 − λabs2) ([1]; methanol): 42 nm
- Δλ3 Stokes Shift (λem2 − λabs1) ([1]; methanol): 250 nm
- ε1 molar extinction coefficient ([1]; methanol): 14500 L/cm/mol
- ε2 molar extinction coefficient ([1]; methanol): 99300 L/cm/mol
- λabs1 maximum absorption wavelength ([1]; methanol): 400 nm
- λabs2 maximum absorption wavelength ([1]; methanol): 608 nm
- λem1 maximum emission wavelength ([1]; methanol): 451 nm
- λem2 maximum emission wavelength ([1]; methanol): 650 nm
- Φ1 fluorescence quantum yield ([1]; methanol): 0.0050
- Φ2 fluorescence quantum yield ([1]; methanol): 0.0079
- absorption peak, longer wavelength ([1]; solvent not stated): 610 nm
- absorption peak, shorter wavelength ([1]; solvent not stated): 400 nm
- emission peak, longer wavelength ([1]; solvent not stated): 650 nm
- emission peak, shorter wavelength ([1]; solvent not stated): 456 nm and 460 nm
- Δλ1 Stokes Shift (λem1 − λabs1) ([1]; water): 47 nm
- Δλ2 Stokes Shift (λem2 − λabs2) ([1]; water): 43 nm
- Δλ3 Stokes Shift (λem2 − λabs1) ([1]; water): 230 nm
- ε1 molar extinction coefficient ([1]; water): 16800 L/cm/mol
- ε2 molar extinction coefficient ([1]; water): 62100 L/cm/mol
- λabs1 maximum absorption wavelength ([1]; water): 413 nm
- λabs2 maximum absorption wavelength ([1]; water): 600 nm
- λem1 maximum emission wavelength ([1]; water): 460 nm
- λem2 maximum emission wavelength ([1]; water): 643 nm
- Φ1 fluorescence quantum yield ([1]; water): 0.0023
- Φ2 fluorescence quantum yield ([1]; water): 0.0032
- sensitivity of fluorescence intensity to solvent viscosity [2]: quite sensitive to solvent viscosity
- fluorescence lifetime ([3]; 99% glycerol solution): 1450 ps
- fluorescence lifetime ([3]; pure ethanol): lower than 50 ps

Compound: CCN1/C(=C/C=C/C=C/C2=[N+](CC)c3ccccc3C2(C)C)C(C)(C)c2ccccc21 [ethyl-Cy5, reference compound]
- Δλ Stokes Shift (single peak) ([1]; DMSO): 13 nm
- ε molar extinction coefficient (single peak) ([1]; DMSO): 272000 L/cm/mol
- λabs maximum absorption wavelength (single peak) ([1]; DMSO): 655 nm
- λem maximum emission wavelength (single peak) ([1]; DMSO): 668 nm
- Φ fluorescence quantum yield (single peak) ([1]; DMSO): 0.33
- Δλ Stokes Shift (single peak) ([1]; THF): 9 nm
- ε molar extinction coefficient (single peak) ([1]; THF): 227000 L/cm/mol
- λabs maximum absorption wavelength (single peak) ([1]; THF): 653 nm
- λem maximum emission wavelength (single peak) ([1]; THF): 662 nm
- Φ fluorescence quantum yield (single peak) ([1]; THF): 0.37
- Δλ Stokes Shift (single peak) ([1]; dichloromethane): 6 nm
- ε molar extinction coefficient (single peak) ([1]; dichloromethane): 306000 L/cm/mol
- λabs maximum absorption wavelength (single peak) ([1]; dichloromethane): 661 nm
- λem maximum emission wavelength (single peak) ([1]; dichloromethane): 671 nm
- Φ fluorescence quantum yield (single peak) ([1]; dichloromethane): 0.29
- Δλ Stokes Shift (single peak) ([1]; ethanol): 11 nm
- ε molar extinction coefficient (single peak) ([1]; ethanol): 302000 L/cm/mol
- λabs maximum absorption wavelength (single peak) ([1]; ethanol): 652 nm
- λem maximum emission wavelength (single peak) ([1]; ethanol): 663 nm
- Φ fluorescence quantum yield (single peak) ([1]; ethanol): 0.27
- Δλ Stokes Shift (single peak) ([1]; methanol): 10 nm
- ε molar extinction coefficient (single peak) ([1]; methanol): 259000 L/cm/mol
- λabs maximum absorption wavelength (single peak) ([1]; methanol): 649 nm
- λem maximum emission wavelength (single peak) ([1]; methanol): 659 nm
- Φ fluorescence quantum yield (single peak) ([1]; methanol): 0.22
- Δλ Stokes Shift (single peak) ([1]; water): 8 nm
- ε molar extinction coefficient (single peak) ([1]; water): 227000 L/cm/mol
- λabs maximum absorption wavelength (single peak) ([1]; water): 648 nm
- λem maximum emission wavelength (single peak) ([1]; water): 656 nm
- Φ fluorescence quantum yield (single peak) ([1]; water): 0.13
